From ChEMBL document CHEMBL1159154, “Synthesis of new potent leukotriene B4 antagonists and their biological properties. 2” (Bioorg Med Chem Lett, 1994) come the findings set out here.

The species named for data set [1] is Homo sapiens. As to the kind of experiment: Concentration required for inhibitory activity against human PMNLs chemotaxis. It is filed as functional, organism-based. As to conditions: PMNL.
Data set [2] relates to Cavia porcellus. As to the kind of experiment: In vivo inhibitory activity against LTB4-induced bronchoconstriction of guinea pig at dose of 5 mg/kg after 10 min of iv administration; Active. It is filed as functional, organism-based. Further details: dose 5 mg/kg.
Data set [3] is described as follows: Partition coefficient in n-octanol/phosphate buffer, at pH 7.4. It is filed as physicochemical.
Data set [4] deals with Cavia porcellus. As to the kind of experiment: In vivo inhibitory activity against LTB4-induced bronchoconstriction of guinea pig at dose of 5 mg/kg after 2 min of iv administration; Active. Format: functional, organism-based. Further details: dose 5 mg/kg.
Data set [5] relates to Cavia porcellus. As to the kind of experiment: In vivo inhibitory activity against LTB4-induced bronchoconstriction of guinea pig at dose of 5 mg/kg after 30 min of iv administration; Active. It is filed as functional, organism-based. Also on record: dose 5 mg/kg.
Data set [6] concerns Cavia porcellus. As to the kind of experiment: In vivo inhibitory activity against LTB4-induced bronchoconstriction of guinea pig at dose of 5 mg/kg after 10 min of iv administration; relatively active. It is filed as functional, organism-based. Further details: dose 5 mg/kg.
In data set [7] the test system is Cavia porcellus. As to the kind of experiment: In vivo inhibitory activity against LTB4-induced bronchoconstriction of guinea pig at dose of 5 mg/kg after 2 min of iv administration; relatively active. Further details: dose 5 mg/kg. Format: functional, organism-based.
For data set [8], the system named is Cavia porcellus. As to the kind of experiment: In vivo inhibitory activity against LTB4-induced bronchoconstriction of guinea pig at dose of 40 mg/kg after 60 min of po administration; Active. Format: functional, organism-based. Further details: dose 40 mg/kg.
Data set [9] relates to Cavia porcellus. As to the kind of experiment: In vivo inhibitory activity against LTB4-induced bronchoconstriction of guinea pig at dose of 40 mg/kg after 60 min of po administration; relatively active. Format: functional, organism-based. Further details: dose 40 mg/kg.

Active and inactive are the calls of the source. The rule behind the calls is not given here.

As a reminder, the IC50 is the concentration that inhibits the measured activity by half. A high value points to weaker potency. The compound `CCc1cc(C(C)=O)c(O)cc1OCc1cccc(C(=O)Nc2nc(CC(=O)O)cs2)c1` displayed an IC50 in [1] of 5 µM.

As a reminder, the logD is lipophilicity at a set pH, counting ionised and neutral species. A high value points to higher lipophilicity. For the compound `CCc1cc(C(C)=O)c(O)cc1OCc1cccc(C(=O)NCCC(=O)O)n1`, the result in data set [2] and in [4] was Active. The half-inhibitory concentration (IC50) in data set [1] worked out at 1 µM. The compound also gave a logD in [3] of 0.7.

The compound `CCc1cc(C(C)=O)c(O)cc1OCc1ccc(C(=O)Nc2nc(CC(=O)O)cs2)cn1` gave an IC50 in data set [1] of 0.7 µM.

Regarding `CCc1cc(C(C)=O)c(O)cc1OCc1cccc(C(=O)Nc2cccc(CC(=O)O)[n+]2[O-])n1`, the outcome in [2], in data set [5] and in data set [4] was Active. In addition, the midpoint of inhibition in data set [1], the IC50, lay at 0.02 µM. In [3], this compound came in with a logD of 0.8.

In [1], `CCc1cc(C(C)=O)c(O)cc1OCc1cccc(C(=O)NCC(=O)O)n1` came in with an IC50 of 12 µM.

In [1], `CCc1cc(C(C)=O)c(O)cc1OCc1cccc(C(=O)Nc2cccc(CC(=O)O)n2)n1` registered an IC50 of 0.8 µM. Moreover, the logD in data set [3] is 1.1.

Consider `CCc1cc(C(C)=O)c(O)cc1OCc1nccc(C(=O)Nc2nc(CC(=O)O)cs2)n1`, for which the half-maximal inhibitory concentration (IC50) in data set [1] is 3 µM.

Regarding `CCc1cc(C(C)=O)c(O)cc1OCc1cncc(C(=O)Nc2nc(CC(=O)O)cs2)n1`, inhibition in data set [1] was half-maximal at 10 µM (IC50). This compound also returned a logD in data set [3] of 0.6. For the same compound, the outcome in [4] was Active. In addition, in data set [6], the Activity result is “Weak activity”.

`CCc1cc(C(C)=O)c(O)cc1OCc1cccc(C(=O)Nc2nc(CC(=O)O)cs2)n1` had an IC50 in data set [1] of 0.3 µM. In data set [3], this compound yielded a logD of 1.9. Moreover, the Activity entry in data set [6] was “Weak activity”.

In data set [1], `CCCc1c(OCCCOc2ccc(C(C)=O)c(OC)c2CCC)ccc2c1OC(C(=O)O)CC2` (stereo not drawn) [SC-41390] came in with a concentration for half-maximal inhibition (IC50) of 3.3 µM.

In turn, `CCc1cc(C(C)=O)c(O)cc1OCc1cccc(C(=O)N[C@@H](CC(=O)O)C(=O)O)n1` showed an IC50 in data set [1] of 0.9 µM. Also, the logD in data set [3] is -1.8. Moreover, the Activity entry in data set [7] and in [6] was “Weak activity” each time.

Take `CCc1cc(C(C)=O)c(O)cc1OCc1cccc(C(=O)N(CC)CCO)n1`: inhibition in [1] was half-maximal at 1 µM (IC50). Besides, in data set [3], the logD was found to be 2.8. For the same compound, the outcome in data set [4] was Active.

`CCc1cc(C(C)=O)c(O)cc1OCc1cccc(C(=O)N(CC)CCC(=O)O)n1`: the outcome in [2], in data set [5], in [8] and in data set [4] was Active. This compound returned an IC50 in data set [1] of 0.3 µM. The compound also registered a logD in data set [3] of 0.1.

In data set [1], `CCc1cc(C(C)=O)c(O)cc1OCc1cccc(C(=O)NCCO)n1` displayed an IC50 of 15 µM.

As to `CCc1cc(C(C)=O)c(O)cc1OCc1cccc(C(=O)N[C@@H](CO)C(=O)O)n1`, the result in [2], in data set [5] and in [4] was Active. In addition, the concentration for half-maximal inhibition (IC50) in [1] was 0.3 µM. Also, in data set [9], the Activity result is “Weak activity”. In data set [3], this compound had a logD of -0.3.
